Test results from patent US11214803B2, “Modulators of YAP1 expression” (Ionis Pharmaceuticals, Inc., priority 2019, dated 2022).
Marks after values point to notes of the source that are not given here. Strand notation (5' to 3'): a small letter for the sugar, then the base; units joined by * are phosphorothioate-linked, units joined directly phosphodiester-linked; [ ] holds rarer units or linkages, { } end groups; capitals alone tell only the bases. k = constrained ethyl (cEt); [5mC] = 5-methylcytosine; d = 2'-deoxy (DNA)

System: Yap1 mRNA
Experiment: Antisense inhibition of human Yap1 in A-431 cells by cEt gapmers, single dose (Example 4, RTS4814)
Format: cell-based
Description: Modified oligonucleotides were designed to target a Yap1 nucleic acid and were tested for their effect on Yap1 mRNA level in vitro. The modified oligonucleotides were tested in a series of experiments that had similar culture conditions. Cultured A-431 cells at a density of 5,000 cells per well were treated using free uptake with 2,000 nM of modified oligonucleotide. After a treatment period of approximately 48 hours, RNA was isolated from the cells and Yap1 mRNA levels were measured by quantitative real-time RTPCR. Human primer probe set RTS4814 was used to measure mRNA levels. Yap1 mRNA levels were normalized to total RNA content, as measured by RIBOGREEN®. Results are presented in the tables below as percent control of the amount of Yap1 mRNA relative to untreated control cells (% UTC). The modified oligonucleotides with percent control values marked with an asterisk (*) target the amplicon region of the primer probe set. Additional assays may be used to measure the potency and efficacy of the modified oligonucleotides targeting the amplicon region.
The newly designed modified oligonucleotides in the Tables below were designed as 3-10-3 cEt gapmers. The gapmers are 16 nucleosides in length, wherein the central gap segment comprises of ten 2′-deoxynucleosides and is flanked by wing segments on the 5′ direction and the 3′ direction comprising three nucleosides each. Each nucleoside in the 5′ wing segment and each nucleoside in the 3′ wing segment has a cEt sugar modification. The internucleoside linkages throughout each gapmer are phosphorothioate (P═S) linkages. All cytosine residues throughout each gapmer are 5-methylcytosines.
“Start site” indicates the 5′-most nucleoside to which the gapmer is targeted in the human gene sequence. “Stop site” indicates the 3′-most nucleoside to which the gapmer is targeted human gene sequence. […] Activity of the modified oligonucleotide may be defined in a different experiment.

[1] = Table 15, A-431 cells, 5,000 cells per well, free uptake, 2,000 nM, approximately 48 hours, RTS4814, normalized to RIBOGREEN, Yap1 mRNA relative to untreated control, * = targets amplicon region of primer probe set
[2] = Table 17, A-431 cells, 5,000 cells per well, free uptake, 2,000 nM, approximately 48 hours, RTS4814, normalized to RIBOGREEN, Yap1 mRNA relative to untreated control cells
[3] = Table 16, A-431 cells, 5,000 cells per well, free uptake, 2,000 nM, approximately 48 hours, RTS4814, normalized to RIBOGREEN, Yap1 mRNA relative to untreated control cells
[4] = Yap1 mRNA remaining as percent of untreated control, 3-10-3 cEt gapmers, A-431 cells, Table 36
[5] = Table 14, A-431 cells, 5,000 cells per well, free uptake, 2,000 nM, approximately 48 hours, RTS4814, normalized to RIBOGREEN, Yap1 mRNA relative to untreated control, * = targets amplicon region of primer probe set
[6] = Yap1 mRNA remaining as percent of untreated control, 3-10-3 cEt gapmers, A-431 cells, Table 37

1074209 (antisense k[5mC]*k[5mC]*kG*dG*dA*dG*d[5mC]*d[5mC]*dT*d[5mC]*dA*dT*dG*kG*kG*k[5mC]) [Compound 1074209]
YAP1 (% UTC) [1]: 72 % UTC

1074787 (k[5mC]*kA*kA*d[5mC]*d[5mC]*dA*dT*dA*dA*dG*dT*dA*dG*kA*kT*k[5mC]; antisense) [Compound 1074787]
YAP1 (% UTC) [2]: 13 % UTC

1074658 (antisense kG*kG*k[5mC]*d[5mC]*dA*dT*dT*dT*d[5mC]*d[5mC]*d[5mC]*d[5mC]*d[5mC]*k[5mC]*kA*kG) [Compound 1074658]
YAP1 (% UTC) [3]: 89 % UTC

1075010 (antisense kA*kA*kT*dA*dA*dT*d[5mC]*dG*dA*dA*d[5mC]*dA*dT*kT*kG*kT) [Compound 1075010]
YAP1 (% UTC) [3]: 88 % UTC

1074307 (antisense kG*kT*kG*dG*d[5mC]*d[5mC]*dT*d[5mC]*dA*d[5mC]*d[5mC]*dT*dG*k[5mC]*k[5mC]*kG) [Compound 1074307]
YAP1 (% UTC) [2]: 105 % UTC

1074646 (antisense kA*kA*kA*dT*dT*dG*dA*dA*dG*dG*dG*d[5mC]*d[5mC]*kA*kA*kA) [compound 1074646]
YAP1 (% UTC) [4]: 39 % UTC

1075424 (antisense kT*kT*kA*dT*dT*dA*dA*dT*d[5mC]*d[5mC]*dT*dG*dT*k[5mC]*k[5mC]*kA) [Compound 1075424]
YAP1 (% UTC) [5]: 18 % UTC

1075542 (kT*kG*kA*dG*dA*dA*dA*dG*dG*dT*dT*d[5mC]*d[5mC]*kT*kG*kA; antisense) [compound 1075542]
YAP1 (% UTC) [4]: 66 % UTC

1076130 (k[5mC]*kT*kG*dG*dA*dA*dT*dA*dG*dT*dG*dG*dG*kT*kG*k[5mC]; antisense) [Compound 1076130]
YAP1 (% UTC) [3]: 34 % UTC

1076118 (k[5mC]*kG*kT*dA*dA*dA*dT*dT*dG*dA*dG*dG*d[5mC]*k[5mC]*k[5mC]*kA; antisense) [compound 1076118]
YAP1 (% UTC) [4]: 45 % UTC

1074999 (antisense kA*kA*k[5mC]*d[5mC]*dA*dA*d[5mC]*dA*d[5mC]*dG*d[5mC]*dG*dA*k[5mC]*k[5mC]*kT) [compound 1074999]
YAP1 (% UTC) [6]: 77 % UTC

1075233 (antisense kG*kT*kA*dA*dT*dT*dT*dA*dT*d[5mC]*dA*dG*d[5mC]*k[5mC]*kA*kT) [Compound 1075233]
YAP1 (% UTC) [1]: 2 % UTC

1074816 (kG*kA*kA*dT*dA*dT*dT*dG*d[5mC]*d[5mC]*dA*d[5mC]*d[5mC]*k[5mC]*kA*k[5mC]; antisense) [Compound 1074816]
YAP1 (% UTC) [5]: 15 % UTC

1074422 (kA*kA*kA*d[5mC]*dA*dG*dG*d[5mC]*dT*d[5mC]*dA*d[5mC]*dT*kT*k[5mC]*k[5mC]; antisense) [compound 1074422]
YAP1 (% UTC) [4]: 9* % UTC

1075458 (antisense k[5mC]*k[5mC]*kA*d[5mC]*dA*dA*dT*dA*dT*dA*d[5mC]*dT*d[5mC]*k[5mC]*kA*kA) [Compound 1075458]
YAP1 (% UTC) [3]: 7 % UTC

1074785 (kA*k[5mC]*k[5mC]*dA*dT*dA*dA*dG*dT*dA*dG*dA*dT*k[5mC]*kT*kA; antisense) [Compound 1074785]
YAP1 (% UTC) [1]: 10 % UTC

1075223 (kG*kT*kT*dA*dA*dA*dA*dG*dT*dG*dA*dA*d[5mC]*k[5mC]*k[5mC]*kA; antisense) [compound 1075223]
YAP1 (% UTC) [6]: 19 % UTC

1075094 (kG*kA*kT*dA*dA*dA*dT*dG*dT*dA*dA*d[5mC]*dT*kA*kG*k[5mC]; antisense) [compound 1075094]
YAP1 (% UTC) [4]: 10 % UTC

1075863 (antisense k[5mC]*k[5mC]*kT*dA*dA*dT*dA*dA*d[5mC]*dT*dT*dG*dT*k[5mC]*kT*kA) [compound 1075863]
YAP1 (% UTC) [6]: 71 % UTC

1074915 (antisense kA*kG*kT*dT*dA*d[5mC]*dA*dT*d[5mC]*d[5mC]*d[5mC]*dG*dA*kG*kT*kG) [Compound 1074915]
YAP1 (% UTC) [2]: 65 % UTC

1074880 (k[5mC]*kT*k[5mC]*d[5mC]*dT*dG*d[5mC]*d[5mC]*dG*dA*dA*dG*d[5mC]*kA*kG*kT; antisense) [compound 1074880]
YAP1 (% UTC) (table after Table 37, headed TABLE 32 (gapmers targeting SEQ ID NO.: 3), A-431 cells, free uptake, 2,000 nM, approximately 48 hours, RTS4814): 101 % UTC

1075798 (kA*kT*kT*dT*dA*dG*dA*dT*dA*dG*dT*dT*dA*k[5mC]*kT*kG; antisense) [compound 1075798]
YAP1 (% UTC) [4]: 21 % UTC

1074945 (antisense k[5mC]*kA*kA*dA*dA*d[5mC]*d[5mC]*d[5mC]*dT*dT*dT*dG*dG*kT*k[5mC]*kT) [Compound 1074945]
YAP1 (% UTC) [1]: 74 % UTC

1074913 (antisense k[5mC]*kA*kT*d[5mC]*d[5mC]*d[5mC]*dG*dA*dG*dT*dG*dG*dG*k[5mC]*kT*kA) [Compound 1074913]
YAP1 (% UTC) [1]: 99 % UTC

1076480 (antisense kG*kT*kA*dA*dA*dT*dA*dT*d[5mC]*d[5mC]*dA*dT*dT*kA*k[5mC]*k[5mC]) [Compound 1076480]
YAP1 (% UTC) [5]: 72 % UTC

1076310 (kA*k[5mC]*k[5mC]*d[5mC]*dT*dA*dT*dA*d[5mC]*dT*dT*dG*dA*kA*kT*kT; antisense) [compound 1076310]
YAP1 (% UTC) [4]: 36 % UTC

1075936 (k[5mC]*kT*kT*dA*dT*dA*dT*dT*d[5mC]*dT*d[5mC]*dT*d[5mC]*k[5mC]*kG*kA; antisense) [Compound 1075936]
YAP1 (% UTC) [5]: 49 % UTC

1075799 (k[5mC]*k[5mC]*kT*d[5mC]*dA*dA*d[5mC]*dA*d[5mC]*dA*dT*dT*dT*kG*kA*kG; antisense) [compound 1075799]
YAP1 (% UTC) [6]: 85 % UTC

1075555 (kG*k[5mC]*k[5mC]*dA*dA*dA*dA*dA*dT*dT*d[5mC]*dT*dT*kG*k[5mC]*kA; antisense) [Compound 1075555]
YAP1 (% UTC) [2]: 92 % UTC

1076354 (kG*kA*kT*dT*dA*dA*dA*d[5mC]*dA*dT*dT*d[5mC]*dG*kG*kA*kT; antisense) [Compound 1076354]
YAP1 (% UTC) [3]: 13 % UTC

1075618 (kT*kT*kT*dT*dA*dA*dG*dA*dA*d[5mC]*dG*dA*d[5mC]*kA*kT*kA; antisense) [Compound 1075618]
YAP1 (% UTC) [3]: 69 % UTC

1075991 (kA*kT*kA*dT*dA*dG*dG*dA*d[5mC]*d[5mC]*dA*d[5mC]*dG*kA*k[5mC]*kT; antisense) [compound 1075991]
YAP1 (% UTC) [6]: 62 % UTC

1075414 (antisense k[5mC]*kA*kT*dA*d[5mC]*dT*dA*dA*dT*d[5mC]*d[5mC]*d[5mC]*dT*k[5mC]*kT*kT) [compound 1075414]
YAP1 (% UTC) [4]: 41 % UTC

1074531 (k[5mC]*kA*k[5mC]*dT*dA*dA*dA*d[5mC]*dT*dA*d[5mC]*dT*dT*k[5mC]*kA*kA; antisense) [Compound 1074531]
YAP1 (% UTC) [2]: 73 % UTC

1074624 (antisense kG*kG*k[5mC]*dT*dT*dA*dT*dT*d[5mC]*dT*dA*dG*dA*kA*kA*k[5mC]) [Compound 1074624]
YAP1 (% UTC) [5]: 65 % UTC

1076514 (antisense k[5mC]*k[5mC]*kT*dT*dA*dG*dG*dA*dG*dA*dT*dG*d[5mC]*kA*k[5mC]*k[5mC]) [Compound 1076514]
YAP1 (% UTC) [3]: 18 % UTC

1076355 (k[5mC]*kT*kA*d[5mC]*dA*dA*dA*dA*dG*dA*dG*d[5mC]*dT*kA*kT*kG; antisense) [Compound 1076355]
YAP1 (% UTC) [2]: 92 % UTC

1076387 (kT*kG*kA*d[5mC]*dA*dA*d[5mC]*dA*d[5mC]*dA*dG*dT*dT*kA*kT*kA; antisense) [Compound 1076387]
YAP1 (% UTC) [2]: 13 % UTC

1074914 (antisense kT*kT*kA*d[5mC]*dA*dT*d[5mC]*d[5mC]*d[5mC]*dG*dA*dG*dT*kG*kG*kG) [Compound 1074914]
YAP1 (% UTC) [3]: 97 % UTC
